EP0075141A1, “1,2,5-Oxadiazole-3,4-dicarboxylic-acid derivatives, process for their production, their use and pharmaceutical preparations containing them” (CASSELLA Aktiengesellschaft, priority 1981, dated 1983)

Tested on: Bastardhunden
Experiment: Haemodynamic study of antianginal and antihypertensive action in anaesthetised mongrel dogs
Format: in vivo
Details: dogs under pentobarbital or urethane-chloralose anaesthesia
Description: Die Untersuchungen über die antianginöse und antihypertensive Wirkung der Verbindungen der Formel I wurden an Bastardhunden beiderlei Geschlechts in Pentobarbital-Narkose (30 bis 40 mg/ kg i.v.) oder in Urethan-Chloralose-Narkose (3 ml/kg Urethan-Chloralose-Gemisch i.v. = 20 mg/kg Chloralose und 250 mg/kg Urethan) durchgeführt. Die Beatmung der Tiere erfolgte mit einem Bird-Mark-7-Respirator. Der endexpiratorische Kohlensäuregehalt (gemessen mit einem Ultrarotabsorptionsschreiber) betrug zwischen 4,5 und 5 Vol.%. Während des gesamten Versuchs erhielten die Tiere mit Pentobarbital-Narkose eine Dauerinfusion von Pentobarbital i.v. = 4 mg(in 6 ml)/kg/h, um eine konstante Narkosetiefe zu gewährleisten; die Tiere mit Urethan-Chloralose-Narkose erhielten keine Dauerinfusion. Die Infusion wurde durch die Vena cephalica gegeben. Nach der Präparation des Versuchstieres wurde ca. 1 Stunde gewartet, bis sich alle haemodynamischen Parameter eingestellt hatten (steady state). Danach wurde mit dem eigentlichen Versuch begonnen.
Zur Bestimmung des mittleren Blutdrucks (=BDm) wurde der systolische und diastolische Blutdruck peripher in der Arteria femora1is über einen Statham-Druckaufnehmer gemessen. Ein über die Arteria carotis in den linken Ventrikel geschobener Millartip-Katheter lieferte das Signal für den linksventrikulären enddiastolischen Druck (=LVEDP) und die Herzfrequenz (=HF). Mit einem zweiten, über die Venajugularis eingeschobenen Tip-Katheter wurde der mittlere Blutdruck (=PAP) in der Arteria pulmonalis erfaßt.

Structure (SMILES)	BDm Δ (mittlerer peripherer Blutdruck) (Dosis 1 mg/kg) [mmHg]	HF Δ (Herzfrequenz) (Dosis 1 mg/kg)	LVEDP Δ (linksventrikulärer enddiastolischer Druck) (Dosis 1 mg/kg)	PAP Δ (mittlerer Pulmonalarteriendruck) (Dosis 1 mg/kg)	other results
CNC(=O)c1nonc1C(=O)NC [H2CNH- / H3CNH-, l,2,5-0xadiazol-3,4-bis-(carbonsäuremethylamid)]	–	–	–	–	BDm Δ (mittlerer peripherer Blutdruck) (Dosis 0,5 mg/kg): -35 mmHg; HF Δ (Herzfrequenz) (Dosis 0,5 mg/kg): +20 b/min; LVEDP Δ (linksventrikulärer enddiastolischer Druck) (Dosis 0,5 mg/kg): -3,5 mmHg; PAP Δ (mittlerer Pulmonalarteriendruck) (Dosis 0,5 mg/kg): -3,0 mmHg
O=C(NC1CCCCC1)c1nonc1C(=O)NC1CCCCC1 [[drawing] / [drawing] (r3)]	-55	+15 b/min	-10 mmHg	-2,7 mmHg	–
CCOC(=O)c1nonc1C(=O)NCCCN1CCN(c2ccccc2OC)CC1 [H5C2O- / [drawing] (r7)]	-30	–	-2,5 mmHg	-1 mmHg	–
CCCNC(=O)c1nonc1C(=O)NCCC [CH3CH2CH2NH- / CH3CH2CH2NH-, 1,2,5-Oxadiazol-3,4-bis-(carbonsäurepropylamid)]	-35	0 b/min	-0,5 mmHg	+1,1 mmHg	–
O=C(NCc1cccnc1)c1nonc1C(=O)NCc1cccnc1 [[drawing] / [drawing] (r2)]	–	–	–	–	BDm Δ (mittlerer peripherer Blutdruck) (Dosis 3 mg/kg): -45 mmHg; LVEDP Δ (linksventrikulärer enddiastolischer Druck) (Dosis 3 mg/kg): -8,5 mmHg; PAP Δ (mittlerer Pulmonalarteriendruck) (Dosis 3 mg/kg): -2,4 mmHg
O=C(NCCO)c1nonc1C(=O)NCCO [HOCH2CH2NH- / HOCH2CH2NH-, 1,2,5-Oxadiazol-3,4-bis-(carbonsäure-ethanolamid)]	-30	0 b/min	-1 mmHg	-2,0 mmHg	–
CCOC(=O)c1nonc1C(=O)NC(C)C [H5C2O- / [drawing] (r5)]	–	–	–	–	BDm Δ (mittlerer peripherer Blutdruck) (Dosis 3 mg/kg): -35 mmHg; LVEDP Δ (linksventrikulärer enddiastolischer Druck) (Dosis 3 mg/kg): -2,5 mmHg; PAP Δ (mittlerer Pulmonalarteriendruck) (Dosis 3 mg/kg): -2,0 mmHg
